Several values for one entry are separate records, joined by “and”; a condition that tells them apart may be missing. Equal values may be shown once.
How the values were obtained:
Collagenase type IV = test: Assay of Collagenase (DQ-gelatin fluorescence); type: biochemical; details: DQ-gelatin substrate
Text: Collagenase type IV and DQ-gelatin was applied in this experiment, where DQ^198 (EnzChek Gelatinase/Collagenase Assay Kit, E-12055) is a kind of fluorescent material, which can bonded with gelatin to form DQ-gelatin. […] Thus, the principle of this experiment is that the activity of collagenase is examined by measuring emission intensity of DQ fluorescent as that the chemical bonding between DQ-gelatin can be enzymatically digested by collagenase.
The fluorescence intensity can be measured in a florescence micro-plate reader equipped with standard fluoresce in filters. Digested product from the DQ-gelatin and DQ collagen substrate has absorption wavelength at 495 nm and fluorescence emission wavelength at 515 nm. Therefore, the activity of collagenase can be determined when the fluorescence emission intensity at 515 nm larger than the blank. In other word, the resulting fluorescence emission intensity would decrease at 515 nm if the collagenase inhibitors were applied. The results of collagenase assay are provided on Table 7, and all values are present as Mean±S.E.M.

HT-1080 cell lines = test: MTT cell viability assay; type: cell-based, human; details: HT-1080, 22 h + 2 h MTT, blank = 100, mean ± S.E.M.
Text: (§1) HT-1080 cell line (ATCC:CCL-121) is a human skin fibroblasts tumor, which is a kind of adherent cell lines, secreting gelatinase, MMP-2 and MMP-9, to extracellular space.
(§2) Before carrying out any experimental process of HT-1080 cell lines, in order to enable HT-1080 cells to secrete more MMP-2 and MMP-9 to extracellular space, the medium RPMI-1640 containing 0.5% FBS (without phenol red) was applied when conducting the subcultivation process. After centrifugation, the medium RPMI-1640 containing only 0.5% FBS was added into centrifugal vials to resuspend the cells, and 20 μL of cell suspension solution was transferred into eppendorfs to mixed with 20 μL Trypan blue for cell dyeing. Finally, calculation of the cell concentration was accomplished by using hemocytometer through optical microscope.
(§3) Suitable amount of the medium RPMI-1640 (based on the cell concentration obtained previous) containing only 0.5% FBS (without phenol red) was applied into the remaining the cell suspension solution, as the resulting concentration of the cell suspension solution around 5×10^5 cells/mL. Afterwards, 500 μL of cell suspension solutions was transferred onto 24-well cell culture plates, followed by 24 hours incubation at 37° C. for the further experiments.
To test the cytotoxicity of 4GX and 4G to HT-1080 cell lines, the cell viability assay need to be conducted. MTT cell viability assay was chosen for this experiment.
The principle of a cell viability assay is the conversion of a yellow tetrazolium salt (MTT; 3-(4,5-Dimethylthiazol-2-yl)-2,5-diphenyl tetrazolium bromide) into a purple product formazan via […] in intact mitochondria, where formazan can be dissolved in dimethylsulfoxide (DMSO). Thus, the increasing yield of resulting product formazan stands for increasing the percentage of cell vitality.
The cell suspension solution (with concentration about 5×10^5 cells/mL) of the previous cell pre-treatment process was placed to a 24-well cell culture plates with 24 hours of incubation under 5% of CO2/air at 37° C. in 70% of humidity, in order to allow cells to grow adherent on the well. After 24 hours of incubation, 1 μL of the solutions containing chemical compounds, 4GX and 4G, prepared in different concentrations (5-100 μM) were applied into each well respectively as vehicle controls, whereas the well applied without any chemical compounds as blank. Finally, the 24-well cell culture plate was placed in incubator for 22 hours of incubation.
Subsequently, the following steps need to avoid the light. After 22 hours of incubation, 50 μL of 5.5 mg/mL MTT was applied in each well for 2 hours of incubation at 37° C. Afterwards, the supernatant was removed from 24-well cell culture plates, and 400 μL DMSO was applied to dissolve the purple product formazan for 15 minutes by shaker at 50 rpm. 150-200 μL of the solution were taken out from each well to examine the adsorption value by ELISA at wavelength 550 nm.
The formula for calculation of cell vitality is presented following: (Adsorption value of vehicle control/blank)×100%

pro MMP-2 = test: Gelatin zymography of HT-1080 supernatants, pro MMP-2; type: cell-based, human; details: HT-1080 supernatant; for Inhibitory effectiveness (%) Pro MMP-2: 24 h; for IC50: gelatin zymography
Text: as §1, §2, §3
(§4) To evaluation the inhibitory effectiveness of gelatinase of 4GX and 4G, a gelatin zymography is needed to be conducted.
(§5) The cell suspension solution (with concentration about 5×10^5 cells/mL) of the previous cell pre-treatment process was placed to a 24-well cell culture plates for 24 hours of incubation at 37° C. Subsequently, 1 μL of the solutions, containing 4GX and 4G, in different concentrations from 10 to 100 μM (10, 20, 50, 100 μM) were applied into each well respectively as vehicle controls, 1 μL of catechin in concentration of 100 μM was applied into the well as a positive control, whereas the well applied without any compounds is as blank, followed by 24 hours of incubation at 37° C. Afterwards, the plate was placed into ice to terminate the reaction, the supernatant of each well were taken out separately for the further experiments.
(§6) Supernatants and two volume of a sample loading dye (500 mM Tris-HCL, 25% Glycerol, 10% SDS, 0.32% Bromophenol blue, pH 6.8) and one volume of a dye were mixed together to use as the indicator of running end point. Afterwards, the enzyme activity was analyzed by polyacrylamide gel electrophoresis (PAGE).
(§7) 1% of gelatin and 10% of polyacrylamide were contained in the gel of PAGE, where gelatin acts as the substrate for gelatinase (pro MMP-2, MMP-2 and pro MMP-9). The running buffer was 25 mM Tris-base, 192 mM […] and 0.1% sodium dodecyl sulfate (SDS), pH 8.3, and the power supply was 125 V/80 mA.
(§8) Following the electrophoresis, the gel was washed with 2.5% Triton X-100 at 24° C. twice in 30 minutes to remove the dye and SDS from the gel. Afterwards, the gel was incubated with a reacting buffer (50 mM Tris-base, 200 mM NaCl, 5 mM CaCl2 and 0.02% Brij 35, pH 7.5) at 37° C. for 24 hours in a thermostatic cabinet, enabling gelatinase enzymatically react with gelatin. The fixing solution (7% acetic acid and 40% methanol) was subsequently applied to the gel for 30 minutes, in order to secure the proteins onto the gel. After 30 minutes, the gel was stained with Brilliant Blue G-Colloidial, and then destained with the destain solution (10% acetic acid and 40% methanol) for visualization of the gelatinase reactive positions against the background of the gel.
(§9) Finally, the gel was then analyzed by image analysis system (Vilber Lounmat, France), and the analysis software was Bio-1 Dversion 99. Setting the blank as reference, setting as 1, and the other groups are presented in relative values in contrast to blank.
(§10) The formula for calculating the inhibitory effectiveness is presented below. The results of gelatin zymography are provided on Table 6, and all values are presented as Mean±S.E.M. (the values of blank−vehicle controls)×100%

MMP-2 = test: Gelatin zymography of HT-1080 supernatants, MMP-2; type: cell-based, human; details: HT-1080 supernatant; for Inhibitory effectiveness (%) MMP-2: 24 h; for IC50: gelatin zymography
Text: as §1, §2, §3, §4, §5, §6, §7, §8, §9, §10

pro MMP-9 = test: Gelatin zymography of HT-1080 supernatants, pro MMP-9; type: cell-based, human; details: HT-1080 supernatant; for Inhibitory effectiveness (%) pro MMP-9: 24 h; for IC50: gelatin zymography
Text: as §1, §2, §3, §4, §5, §6, §7, §8, §9, §10

[1] = Transdermal penetration test, Franz-type diffusion cell; type: in vitro ADME, mice; details: for Average (μg) amount of 4G in the skins: average of three
Text: Franz-type diffusion cell is the apparatus for this experiment, where its structure as a set of vertical double-diffusion and detachable glass containers. The upper donor chamber is a hollow cylindrical for the sample injection, and the bottom of the upper donor chamber has a contacting surface. The lower receptor chamber is double-layered hollow cylindrical diffusion container, where the inner layer of the receptor chamber made of glass contains a fluid for sampling, the outer layer of the receptor chamber is filled with circulating water kept at 37±1° C. for the human body simulation. The contact area between the donor chamber and the receptor chamber is 0.785 cm^2 (the actual penetration area), and the intermediate is fixed with nude and white mice (all three) skins (epidermis facing upwards) by metal clips as the in vitro transdermal penetration barriers.
The experimental method is presented below. First, 4G was dissolved in 30 wt % propylene glycol aqueous solution, followed transferring 0.5 mL of the aqueous solution (containing 0.25 mg) of 4G into the donor chamber of the Franz-type diffusion cell, and top of the open-ended donor chamber was covered with Parafilm® tightly, and the inner receptor chamber was filled with 5.5 mL of the buffer solution (30 wt % ethanol, phosphate buffer solution, pH 7.4), with continuously stirring at 600 rpm. 0.3 mL of the buffer solution was respectively sampled at time points of 1, 2, 4, 6, 8, 10, 12, 24, 36, and 48 hours, and with complete replacement of 0.3 mL of the buffer solution to keep fluid in the diffusion cell the same volume. Finally, the final compound of 4G accumulated in the fluid of the receptor chamber, was analyzed by liquid chromatography tandem mass spectrometry (LC-MS) to investigate the amount of the 4G penetrating through skins and reaching to the blood vessel,
After completing the previous experimental step, the compound, 4G, on the surface of nude and white mice skin were washed with deionized water. Afterwards, the skins were trimmed into the circles with diameter equal to the donor chamber, and following record the skin weight. The skins then placed in homogenizer with 1 mL alcohol at speed 300 rpm for 5 minutes, and followed with centrifugation process at 10000 rpm for 5 minutes. The supernatant was filtered by 0.45 μm PVDF and quantified the content of 4G by LC-MS.

Compound | Inhibitory effectiveness % (collagenase) (Collagenase type IV; 20 μM) | Inhibitory effectiveness % (collagenase) (Collagenase type IV; 40 μM) [%] | Vitality (%) (HT-1080 cell lines; 10 μM) | Vitality (%) (HT-1080 cell lines; 20 μM) | Vitality (%) (HT-1080 cell lines; 50 μM) | Vitality (%) (HT-1080 cell lines; 100 μM) | Inhibitory effectiveness (%) Pro MMP-2 (pro MMP-2; 10 μM) [%] | Inhibitory effectiveness (%) Pro MMP-2 (pro MMP-2; 20 μM) [%] | Inhibitory effectiveness (%) Pro MMP-2 (pro MMP-2; 50 μM) [%] | Inhibitory effectiveness (%) Pro MMP-2 (pro MMP-2; 100 μM) | IC50 (pro MMP-2) [µM] | Inhibitory effectiveness (%) MMP-2 (MMP-2; 10 μM) [%] | Inhibitory effectiveness (%) MMP-2 (MMP-2; 20 μM) [%] | Inhibitory effectiveness (%) MMP-2 (MMP-2; 50 μM) [%] | IC50 (MMP-2) [µM] | Inhibitory effectiveness (%) pro MMP-9 (pro MMP-9; 10 μM) [%] | Inhibitory effectiveness (%) pro MMP-9 (pro MMP-9; 20 μM) [%] | Inhibitory effectiveness (%) pro MMP-9 (pro MMP-9; 50 μM) [%] | Inhibitory effectiveness (%) pro MMP-9 (pro MMP-9; 100 μM) | IC50 (pro MMP-9) [µM] | other results
c1cnc2c(c1)ccc1cccnc12 [1, 10-phenanthroline, reference compound] | 12.80% | 38.41 | – | – | – | – | – | – | – | – | – | – | – | – | – | – | – | – | – | – | –
O=C(OC[C@H]1O[C@@H](OC(=O)c2cc(O)c(O)c(O)c2)[C@H](OC(=O)c2cc(O)c(O)c(O)c2)[C@@H](OC(=O)c2cc(O)c(O)c(O)c2)[C@@H]1O)c1cc(O)c(O)c(O)c1 [4G, 1,2,3,6-tetra-O-galloyl-β-D-glucose] | 50% and 52.12% | 61.73 | 93.45 ± 4.91 | 87.30 ± 1.93 | 93.06 ± 4.41 | 87.81 ± 7.83 | 10.13 | 16.80 | 30.13 | 39.40% | 99.6 | 29.93 | 48.07 | 73.27 | 23 | 18.73 | 28.70 | 44.13 | 53.50% | > 100 | accumulated amounts of 4G of the fluid in the receptor chamber ([1]; nude and white mice skins, sampled 1 to 48 hours, LC-MS): nearly zero; Percentage of 4G in the mouse skins ([1]; nude mice skin): 27.84%; Average (μg) amount of 4G in the skins ([1]; nude mice skin): 1.17 ± 0.21 µg; The amount of 4G in the skins ([1]; nude mice skin, single samples, 0.25 mg in donor chamber, after 48 hours): 1.42 µg and 1.02 µg and 1.09 µg; Percentage of 4G in the mouse skins ([1]; white mice skin): 74.84%; Average (μg) amount of 4G in the skins ([1]; white mice skin): 6.07 ± 2.43 µg
O=C(OCC1OC(OC(=O)c2cc(O)c(O)c(O)c2)C(OC(=O)c2cc(O)c(O)c(O)c2)C(OC(=O)c2cc(O)c(O)c(O)c2)C1OC(=O)c1ccc(O)cc1)c1cc(O)c(O)c(O)c1 [4GX, 1,2,3,6-tetra-O-galloyl-4-O-(4-hydroxybenzoyl)-β-D-glucopyranoside] | – | – | 97.18 ± 6.52 | 100.78 ± 4.06 | 105.48 ± 2.18 | 94.31 ± 9.76 | 15.83 | 31.53 | 62.30 | – | 30 | 25.46 | 63.57 | 76.20 | 16.3 | 3.80 | 15.83 | 32.17 | 45.47% | > 100 | –
catechin [reference compound] | – | – | – | – | – | – | – | – | – | 56.30% and 72.97% | – | – | – | – | – | – | – | – | 64.30% and 76.07% | – | Inhibitory effectiveness (%) MMP-2 (MMP-2; 100 μM): 86.77% and 85.00%
